# Experimental data from PubChem BioAssay AID504765 (Sanford-Burnham Center for Chemical Genomics, 2011).
# Active and inactive are the calls of the source. No rule for the calls is given here.
# Target: glucose-6-phosphate dehydrogenase-6-phosphogluconolactonase (Plasmodium falciparum 3D7)
# Assay: PfG6PD inhibitor potency, dose response, biochemical, fluorescence intensity (AID 504765)
# Details: Recombinant PfG6PD enzyme, fluorescence intensity (NADPH)
row,Compound,IC50
1,Cc1c(/C=C/C(=O)c2ccc(Cl)s2)cnn1C,9.12 µM
2,CC(=O)OCCCNc1cc(Sc2nc3ccccc3s2)c2nonc2c1[N+](=O)[O-],3.92 µM
3,NS(=O)(=O)c1ccc(N/N=C/c2ccc(O)c(O)c2O)c([N+](=O)[O-])c1,5.7 µM
4,O=C(CNC(=O)c1ccc(Br)cc1)NCC(=O)OCC(=O)c1ccc([N+](=O)[O-])cc1,18.1 µM
5,Cc1nc(COC(=O)c2cc(O)c3ccccc3c2O)cs1,3.52 µM
6,CCC(CO)[n+]1c(C)cc(/C=C2\Sc3ccccc3N2Cc2ccccc2)cc1C (configuration not stated),12.2 µM
7,COc1ccc(C(=O)Nc2sc3c(c2C(=O)O)CC(C)(C)OC3)cc1,11 µM
8,CCCCCCCCn1sccc1=O,3.75 µM
9,ClC(Cl)(c1nnnn1-c1ccccc1)c1nnnn1-c1ccccc1,3.8 µM
10,O=c1c2ccccc2[se]n1-c1ccccc1,9.66 µM
11,COc1cccc2nc3cc(C)c(C)cc3nc12,4.69 µM
12,CN(C)c1nc(=NCc2cccs2)ss1,11.9 µM
13,NCCc1cc(O)c(O)cc1O,3.51 µM
14,CN1CC[C@@]2(C)c3cc(O)ccc3N(C)[C@@H]12,1.52 µM
15,Cc1cccc(-n2c(=S)[nH]c3sc4c(c3c2=O)CCc2ccccc2-4)c1,inactive
16,CN(C)Cc1cc(O)c(CN(C)C)cc1O,2.03 µM
17,O=C1Nc2cc(C(=O)NCCCN3CCCC3)ccc2S/C1=C\c1ccccc1,9.3 µM
18,COC(=O)CCC(=O)OC1(C)C(=O)C2=CN(c3ccccc3)C(c3ccc(OC)cc3)=CC2=C(Br)C1=O (configuration not stated),3.16 µM
19,CCn1c([N+](=O)[O-])nc2c1c(=O)[nH]c(=O)n2C,12.2 µM
20,Cc1cccc(C(=O)Nc2sc3c(c2C(=O)O)CCCC3)c1,8.55 µM
21,Cc1ccc(-c2nc(N3CCOCC3)s[n+]2-c2ccccc2)cc1,5.65 µM

row,Compound,IC50
1,COc1cc(Sc2ccc(C)cc2)c(OC)cc1N,7.04 µM
2,Cc1ccc(NC(=O)Cn2sc3nc(C)cc(C)c3c2=O)c(Cl)c1,2.09 µM
3,CN(C)c1ncc(C2=C(Cl)C(=O)C(N3CCCC3)=C(Cl)C2=O)s1,3.32 µM
4,COc1cc(/C=N/n2cc(-c3ccccc3)[nH]c2=S)cc(OC)c1O,19.6 µM
5,CC1(OC(=O)C2CCCC2)C(=O)C=C2C=C(c3ccsc3)N(CCc3c[nH]c4ccccc34)C=C2C1=O (configuration not stated),4.97 µM
6,Nc1c(C(=O)Nc2ccc(F)cc2)sc(=S)n1-c1ccccc1F,8.31 µM
7,O=C(CN1C(=O)C2C3C=CC(C3)C2C1=O)OCC(=O)c1ccc([N+](=O)[O-])cc1 (configuration not stated),9.71 µM
8,O=C1C=CC(=O)N1c1ccc(N2CCCCC2)cc1,15.6 µM
9,Cc1ccc(NC(=O)c2cc(N3C(=O)C=CC3=O)ccc2N2CCOCC2)cc1Cl,12.2 µM
10,Cc1cc(C)c2c(=N)c3ccccc3n(CCCCCCCCn3c4ccccc4c(=N)c4c(C)cc(C)nc43)c2n1,10.1 µM
11,COc1cccc(-c2c(C(=O)N/N=C/c3ccc(C)s3)nnn2-c2nonc2N)c1,6.69 µM
12,CCOc1ccc(CNc2ccc(N3CCCC3)cc2)cc1,2.64 µM
13,Cc1cc(C)c(S(=O)(=O)Nc2cc(SCC(=O)O)c(O)c3ccccc23)cc1C,1.19 µM
14,COc1cc(N=c2ssnc2Cl)cc(OC)c1OC,15.5 µM
15,Cc1ccc(S(=O)(=O)SCCCSS(=O)(=O)c2ccc(C)cc2)cc1,4.64 µM
16,O=C(CN1CCN(c2ccc(O)cc2)CC1)Nc1cc(S(=O)(=O)N2CCOCC2)ccc1Cl,inactive
17,Cc1c(N=C2C=C(Br)C(=O)C(Br)=C2)c(=O)n(-c2ccccc2)n1C,7.32 µM
18,O=C(Nc1ccccc1C(=O)N/N=C/c1ccco1)c1ccccc1Cl,10.6 µM
19,CCC1(CC)Cc2ccccc2C(N)=C1C#N,inactive
20,CCOC(=O)c1c(C2COc3ccccc3O2)csc1NC(=O)c1ccco1 (configuration not stated),14.2 µM
21,Cc1ccc(Nc2cc(C)c(O)c(C)c2)cc1,6.16 µM

row,Compound,IC50
1,Cc1nnc(N/N=C\c2ccc(-c3cccc(C(=O)O)c3)o2)n1N,4.75 µM
2,COc1ccc(C(=O)Nc2cc(Cl)ccc2C(=O)O)cc1,15 µM
3,CN1CCN(C(=S)C(=O)Nc2ccc(Br)cc2)CC1,7.26 µM
4,C=CCc1c(C)[nH]c(=S)c(C#N)c1C,15.3 µM
5,Clc1nssc1=Nc1nncs1,14.3 µM
6,COc1cccc(CNc2ccc3[nH]c(=O)[nH]c3c2)c1OCc1ccc(F)cc1,inactive
7,Cc1ccc(-n2sc3ccccc3c2=O)cc1,8.63 µM
8,C=CCN1CCc2cccc3c2[C@H]1Cc1ccc(O)c(O)c1-3,19.6 µM
9,CC1(C)Cc2c(sc3nc4n(-c5ccccc5)c(=O)c(CCC(=O)O)nn4c(=O)c23)CO1,4.1 µM
10,CCC(=O)OCOc1ccc(/C=C2/CCC(CN(C)C)C2=O)cc1 (configuration not stated),6.86 µM
11,Cc1ccc(NC2=C(NC(=O)c3ccccc3)C(=O)c3ccccc3C2=O)cc1Cl,10.2 µM
12,NCCNc1ccc(C(=O)N2c3ccccc3Sc3ccccc32)cc1[N+](=O)[O-],13.3 µM
13,Cc1ccc(NNS(=O)(=O)c2ccc(C)cc2)cc1,12.6 µM
14,Cc1ccc(S(=O)(=O)N(C)C)cc1NC(=O)CSc1nc2ncc(Cl)cc2[nH]1,12.1 µM
15,CN1CCc2cccc3c2[C@H]1Cc1ccc(O)c(O)c1-3,8.4 µM
16,CC1=CC(=NOC(=O)/C=C/c2ccccc2)C=C(C)C1=O,13.9 µM
17,C=CCOc1ccc(CNc2ccc3[nH]c(=O)[nH]c3c2)cc1OC,6.61 µM
18,COc1c(O)ccc2c1CN1CCc3cc4c(cc3C1C2)OCO4 (configuration not stated),15.5 µM
19,O=C(Nc1ccc(N2CCCC2)cc1)c1cccc(-c2cc3ccccc3oc2=O)c1,inactive
20,COc1cccc(CNc2ccc3[nH]c(=O)[nH]c3c2)c1OCc1ccccc1Cl,inactive
